In patent publication US20070232588A1, “Anti-parasitic and/or anti-viral and/or anti-microbial compositions” (priority 2004, published 2007):
Converted amounts (≈) assume the structure as drawn.

Assays:
[1] = Countercurrent distribution, KrKb (partition coefficient x dissociation constant); assay type: physicochemical
Description: The diverse tertiary alkaloids contained in the basic extract of Example 1, were separated by countercurrent distribution, with dichloromethane as the stationary phase and an aqueous buffer with an incrementally decreasing pH (mobile phase). The alkaloids were recovered from the aqueous phase by extraction with dichloromethane.
The equipment used was a Craig type Post apparatus made up of 200 glass tubes (with 10 ml volumes for the lower phase and 10 ml volumes for the upper phase).

[2] = system: Plasmodium falciparum Strain D6; assay: In vitro antiplasmodial activity (IC50), strain D6; assay type: cell-based
Description: (§1) The basic extracts obtained as in Example 1, from both the root and stem bark with a yield of 1.9% were used to carry out the in vitro antiplasmodial activity study on known Plasmodium falciparum strains.
(§2) Plasmodium falciparum strains D6 and W2 were used throughout this investigation. Laboratory isolates of P. falciparum were grown under controlled conditions in culture medium containing leukocyte-free red blood cells (RBCs) at 5% hematocrit (Tager and Jensen, 1976). Briefly, parasites were allowed to infect RBCs in a media consisting of RPMI 1640 plus 25 mM Hepes, 0.25 glucose, 0.2% sodium bicarbonate, 0.5% Albumax II, and 50 mg/liter hypoxanthine and grown in 5% CO2 at 37° C. […]
(§3) Assessment of parasite development and morphology. Parasite development and morphology were evaluated by microscopic examination of Giemsa-stained thin blood smears at 24, 48, and 72 hour intervals in the presence of increasing doses of the alkaloids dissolved as a stock solution in 10% (v/v) dimethylsulphoxide (DMSO) in RPMI 1640. […] Smears from drug-free cultures were always used as controls Parasitemia was measured by counting blood cells and expressed as percentage of total parasitized erythrocytes (Table 3).

[3] = system: Leishmania infantum promastigotes; assay: In vitro leishmanicidal activity, MTT assay; assay type: cell-based; settings: for Fold Increase (IC50), voacamine with respect to the basic extract: ratio of IC50
Description: Preparation of the anti-leishmanial compositions: The total plant extract was dissolved in DMSO as a 50 mg/mL stock. The purified alkaloid, voacamine, was dissolved in 50% DMSO at a 3 mg/mL stock.
In vitro drug testing. […] 10 μL of 3-(4,5-dimethylthiazol-2-yl)-2,5-diphenyl-2H-tetrazol bromide (MTT, Sigma, 5 mg/mL in PBS) were added to each well and plates were incubated for an additional period of 5 hours. Only viable cells are able to reduce the MTT compound to produce water-insoluble formazan crystals of a purple color. These crystals were dissolved by adding 100 μL of SDS 20% and incubating overnight at 37° C. The absorbance was subsequently read at 540 nanometers using a microplate reader (Beckman Biomek 2000). Cell survival was determined by dividing the absorbance of the compound at a given concentration by the absorbance of control cells grown in the absence of drug. The 50% inhibitory concentration (IC50) values were graphically determined after plotting the percentage of growth as a function of drug concentration. All experiments were performed in duplicate.

[4] = system: Plasmodium falciparum Strain W2; assay: In vitro antiplasmodial activity (IC50), strain W2; assay type: cell-based
Description: as §1, §2, §3

Compound: C/C=C1/CN2[C@H]3C[C@@H]1[C@@H](CO)[C@@H]2Cc1c3n(C)c2ccccc12 [affinisine]
- KrKb (Kr partition coefficient aqueous phase/organic phase, Kb dissociation constant) [1]: 7×10^−10

Compound: C/C=C1/CN2[C@H]3Cc4c(n(C)c5ccccc45)[C@@H]2C[C@@H]1[C@@]3(CO)C(=O)OC [voachalotine]
- KrKb (Kr partition coefficient aqueous phase/organic phase, Kb dissociation constant) [1]: 2×10^−11

Compound: N-demethylvoacamine
- KrKb (Kr partition coefficient aqueous phase/organic phase, Kb dissociation constant) [1]: 3.5×10^−11

Compound: CC=C1CN(C)C2Cc3c([nH]c4ccccc34)C(=O)CC1C2CO (stereo not drawn) [16-epi-affinine]
- KrKb (Kr partition coefficient aqueous phase/organic phase, Kb dissociation constant) [1]: 2.5×10^−9

Compound: CC=C1CN(C)C2Cc3c([nH]c4ccccc34)C(c3cc4[nH]c5c(c4cc3OC)CCN3CC4CC(CC)C3C5(C(=O)OC)C4)CC1C2C(=O)OC (stereo not drawn) [Ex. 2, voacamine]
- IC50 [2]: 0.238 µg/mL (≈ 0.338 µM)
- IC90 ([3]; Leishmania infantum, 72 h): 7 µg/mL (≈ 9.93 µM)
- IC50 ([3]; Leishmania infantum, 72 h, read-out: IC50 (concentration required to kill 50% of the parasites)): 3.3 µg/mL (≈ 4.68 µM)
- concentration producing complete cellular destruction ([3]; before 72 hours): 10 µg/mL
- Fold Increase (IC50), voacamine with respect to the basic extract ([3]; listed as Voacamine): 20.7 fold
- Fold Increase (IC50), voacamine with respect to the basic extract ([3]; listed as voacamine): 20 fold
- Fold Increase (IC90), voacamine with respect to the basic extract ([3]; ratio of IC90): 15.7 fold
- IC50 [4]: 0.29 µg/mL (≈ 0.411 µM)
